This passage reports IC50 results from US8501770B2 (ArQule, Inc., priority 2009, dated 2013).

Usually IC50 stands for the midpoint of a concentration-inhibition curve.

Full-length inactive AKT1, sequence (P31749 whole entry): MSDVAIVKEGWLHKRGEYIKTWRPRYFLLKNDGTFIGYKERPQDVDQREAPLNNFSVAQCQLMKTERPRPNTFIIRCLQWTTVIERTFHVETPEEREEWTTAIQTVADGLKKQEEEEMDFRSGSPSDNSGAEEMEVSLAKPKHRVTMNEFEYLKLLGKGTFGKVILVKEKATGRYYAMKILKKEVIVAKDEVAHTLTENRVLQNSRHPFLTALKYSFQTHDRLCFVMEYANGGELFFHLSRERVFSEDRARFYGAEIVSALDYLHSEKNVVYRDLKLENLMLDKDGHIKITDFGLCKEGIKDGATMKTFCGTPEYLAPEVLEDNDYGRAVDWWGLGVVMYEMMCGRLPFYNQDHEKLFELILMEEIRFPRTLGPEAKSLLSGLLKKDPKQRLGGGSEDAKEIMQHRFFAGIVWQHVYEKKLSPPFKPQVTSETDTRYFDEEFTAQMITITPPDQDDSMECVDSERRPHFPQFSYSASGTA

This assay deals with Full-length inactive AKT1 (Homo sapiens, UniProt P31749). The assay can be described thus: Inactive Akt Alpha Screen Assay. It counts as biochemical. As to conditions: values not marked with "*"; read-out: Akt1 IC50, (AlphaScreen). The method, boiled down:
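AlphaScreen read-out (excitation 640 nm, emission 570 nm) after 90 min incubation at room temperature in the dark. Signal comes from crosstide phosphorylation by AKT1, which was activated by added PDK1, MAPKAPK2, ATP and lipid vesicles, captured via phospho-AKT substrate antibody and streptavidin beads.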
In the case of `Nc1ncccc1-c1nc2ccc(-c3cccc(C(=O)O)c3)nc2n1-c1ccc(C2(N)CCC2)cc1` [Example 376, 3-(3-(4-(1-aminocyclobutyl)phenyl)-2-(2-3aminopyridin-3-yl)-H-imidazo[4,5-b]pyridin-5-yl)benzoic acid], the IC50 turned out to be 3.8 nM. Then `CNC(=O)C1(c2ccc(-n3c(-c4cccnc4N)nc4ccc(-c5ccccc5)nc43)cc2)CCC1` [Example 378, 1-(4-(2-(2-aminopyridin-3-yl)-5-phenyl-3H-imidazo[4,5-b]pyridin-3-yl)phenyl)-N-methylcyclobutanecarboxamide], with 93 nM. Then `Nc1ncccc1-c1nc2ccc(-c3ccccc3)nc2n1-c1ccc(C2(C(=O)NCCO)CCC2)cc1` [Example 379, 1-(4-(2-(2-aminopyridin-3-yl)-5-phenyl-3H-imidazo[4,5-b]pyridin-3-yl)phenyl)-N-(2-hydroxyethyl)cyclobutanecarboxamide], with 290 nM. As for `CN(C)C(=O)c1cccc(-c2ccc3nc(-c4cccnc4N)n(-c4ccc(C5(N)CCC5)cc4)c3n2)c1` [Example 380, 3-(3-(4-(1-aminocyclobutyl)phenyl)-2-(2-aminopyridin-3-yl)-3H-imidazo[4,5-b]pyridin-5-yl)-N,N-dimethylbenzamide], the figure is 3.3 nM; as for `Nc1ncccc1-c1nc2ccc(-c3ccccc3)nc2n1-c1ccc(C2(NC(=O)Nc3ccccc3)CCC2)cc1` [Example 381, 1-(1-(4-(2-(2-aminopyridin-3-yl)-5-phenyl-3H-imidazo[4,5-b]pyridin-3-yl)phenyl)cyclobutyl)-3-phenylurea], 54 nM; as for `Nc1ncccc1-c1nc2ccc(-c3ccccc3CO)nc2n1-c1ccc(C2(N)CCC2)cc1` [Example 382, (2-(3-(4-(1-aminocyclobutyl)phenyl)-2-(2-aminopyridin-3-yl)-3H-imidazo[4,5-b]pyridin-5-yl)phenyl)methanol], 10 nM. On to `Nc1ncccc1-c1nc2ccc(-c3ccc(CO)cc3)nc2n1-c1ccc(C2(N)CCC2)cc1` [Example 383, (4-(3-(4-(1-aminocyclobutyl)phenyl)-2-(2-aminopyridin-3-yl)-3H-imidazo[4,5-b]pyridin-5-yl)phenyl)methanol], for which the half-inhibitory concentration (IC50) is 3.7 nM. Regarding `NC(=O)c1ccccc1-c1ccc2nc(-c3cccnc3N)n(-c3ccc(C4(N)CCC4)cc3)c2n1` [Example 384, 2-(3-(4-(1-aminocyclobutyl)phenyl)-2-(2-aminopyridin-3-yl)-3H-imidazo[4,5-b]pyridin-5-yl)benzamide], the IC50 turned out to be 37 nM. Then `Nc1ncccc1-c1nc2ccc(-c3cccc(C(=O)NCCO)c3)nc2n1-c1ccc(C2(N)CCC2)cc1` [Example 385, 3-(3-(4-(1-aminocyclobutyl)phenyl)-2-(2-aminopyridin-3-yl)-3H-imidazo[4,5-b]pyridin-5-yl)-N-(2-hydroxyethyl)benzamide], with 2.8 nM; and `CN(CCO)C(=O)c1cccc(-c2ccc3nc(-c4cccnc4N)n(-c4ccc(C5(N)CCC5)cc4)c3n2)c1` [Example 386, 3-(3-(4-(1-aminocyclobutyl)phenyl)-2-(2-aminopyridin-3-yl)-3H-imidazo[4,5-b]pyridin-5-yl)-N-(2-hydroxyethyl)-N-methylbenzamide], with 2.3 nM; and `NC(=O)c1ccc(-c2ccc3nc(-c4cccnc4N)n(-c4ccc(C5(N)CCC5)cc4)c3n2)cc1` [Example 387, 4-(3-(4-(1-aminocyclobutyl)phenyl)-2-(2-aminopyridin-3-yl)-3H-imidazo[4,5-b]pyridin-5-yl)benzamide], with 8.7 nM. `Nc1ncccc1-c1nc2ccc(-c3cccc(C(=O)N4CCOCC4)c3)nc2n1-c1ccc(C2(N)CCC2)cc1` [Example 388, (3-(3-(4-(1-aminocyclobutyl)phenyl)-2-(2-aminopyridin-3-yl)-3H-imidazo[4,5-b]pyridin-5-yl)phenyl)(morpholino)methanone]: the IC50 was 3 nM. Then `Nc1ncccc1-c1nc2ccc(-c3cccc(O)c3)nc2n1-c1ccc(C2(N)CCC2)cc1` [Example 389, 3-(3-(4-(1-aminocyclobutyl)phenyl)-2-(2-aminopyridin-3-yl)-3H-imidazo[4,5-b]pyridin-5-yl)phenol], with 1.6 nM. With `Nc1ncccc1-c1nc2ccc(-c3cccc(N4CCOCC4)c3)nc2n1-c1ccc(C2(N)CCC2)cc1` [Example 390, 3-(3-(4-(1-aminocyclobutyl)phenyl)-5-(3-morpholinophenyl)-3H-imidazo[4,5-b]pyridin-2-yl)pyridin-2-amine], the IC50 worked out at 2.3 nM. Then `CS(=O)(=O)c1cccc(-c2ccc3nc(-c4cccnc4N)n(-c4ccc(C5(N)CCC5)cc4)c3n2)c1` [Example 391, 3-(3-(4-(1-aminocyclobutyl)phenyl)-5-(3-(methylsulfonyl)phenyl)-3H-imidazo[4,5-b]pyridin-2-yl)pyridin-2-amine], with 5 nM; and `N#Cc1cccc(-c2ccc3nc(-c4cccnc4N)n(-c4ccc(C5(N)CCC5)cc4)c3n2)c1` [Example 392, 3-(3-(4-(1-aminocyclobutyl)phenyl)-2-(2-aminopyridin-3-yl)-3H-imidazo[4,5-b]pyridin-5-yl)benzonitrile], with 7.1 nM. Then `Nc1ncccc1-c1nc2ccc(-c3ccccn3)nc2n1-c1ccc(C2(N)CCC2)cc1` [Example 393, 3-(3-(4-(1-aminocyclobutyl)phenyl)-5-(pyridin-2-yl)-3H-imidazo[4,5-b]pyridin-2-yl)pyridin-2-amine], with 3.7 nM. Then `Nc1ncccc1-c1nc2ccc(-c3ccncc3)nc2n1-c1ccc(C2(N)CCC2)cc1` [Example 394, 3-(3-(4-(1-aminocyclobutyl)phenyl)-5-(pyridin-4-yl)-3H-imidazo[4,5-b]pyridin-2-yl)pyridin-2-amine], with 3.9 nM.

`Nc1ncccc1-c1nc2ccc(-c3cncnc3)nc2n1-c1ccc(C2(N)CCC2)cc1` [Example 395, 3-(3-(4-(1-aminocyclobutyl)phenyl)-5-(pyrimidin-5-yl)-3H-imidazo[4,5-b]pyridin-2-yl)pyridin-2-amine]: the IC50 came out at 9.8 nM.

`COc1cccc(-c2ccc3nc(-c4cccnc4N)n(-c4ccc(C5(N)CCC5)cc4)c3n2)c1` [Example 396, 3-(3-(4-(1-aminocyclobutyl)phenyl)-5-(3-methoxyphenyl)-3H-imidazo[4,5-b]pyridin-2-yl)pyridin-2-amine]: the IC50 amounted to 3.2 nM.

For `Nc1ncccc1-c1nc2ccc(-c3cccc4[nH]ccc34)nc2n1-c1ccc(C2(N)CCC2)cc1` [Example 397, 3-(3-(4-(1-aminocyclobutyl)phenyl)-5-(1H-indol-4-yl)-3H-imidazo[4,5-b]pyridin-2-yl)pyridin-2-amine], the half-inhibitory concentration (IC50) was determined as 3.8 nM. On to `CN(C)Cc1cccc(-c2ccc3nc(-c4cccnc4N)n(-c4ccc(C5(N)CCC5)cc4)c3n2)c1` [Example 398, 3-(3-(4-(1-aminocyclobutyl)phenyl)-5-(3-((dimethylamino)methyl)phenyl)-3H-imidazo[4,5-b]pyridin-2-yl)pyridin-2-amine], for which the IC50 turned out to be 6.4 nM. Then `CN(C)C(=O)c1ccc(-c2ccc3nc(-c4cccnc4N)n(-c4ccc(C5(N)CCC5)cc4)c3n2)cc1` [Example 399, 4-(3-(4-(1-aminocyclobutyl)phenyl)-2-(2-aminopyridin-3-yl)-3H-imidazo[4,5-b]pyridin-5-yl)-N,N-dimethylbenzamide], with 21 nM; and `CNC(=O)c1ccc(-c2ccc3nc(-c4cccnc4N)n(-c4ccc(C5(N)CCC5)cc4)c3n2)cc1` [Example 400, 4-(3-(4-(1-aminocyclobutyl)phenyl)-2-(2-aminopyridin-3-yl)-3H-imidazo[4,5-b]pyridin-5-yl)-N-methylbenzamide], with 13 nM. As for `Nc1ncccc1-c1nc2ccc(-c3cnccn3)nc2n1-c1ccc(C2(N)CCC2)cc1` [Example 401, 3-(3-(4-(1-aminocyclobutyl)phenyl)-5-(pyrazin-2-yl)-3H-imidazo[4,5-b]pyridin-2-yl)pyridin-2-amine], the figure is 6.4 nM. Then `CC(=O)Nc1ccc(-c2cnc3c(c2)nc(-c2cccnc2N)n3-c2cccc(CNC(=O)c3cccc(F)c3)c2)cc1` [Example 402, N-(3-(6-(4-acetamidophenyl)-2-(2-aminopyridin-3-yl)-3H-imidazo[4,5-b]pyridin-3-yl)benzyl)-3-fluorobenzamide], with 2830 nM; and `CS(=O)(=O)Nc1ccc(-c2ccc3nc(-c4cccnc4N)n(-c4ccc(C5(N)CCC5)cc4)c3n2)cc1` [Example 403, N-(4-{3-[4-(1-aminocyclobutyl)phenyl]-2-(2-aminopyridin-3-yl)-3H-imidazo[4,5-b]pyridin-5-yl}phenyl)methanesulfonamide], with 4.5 nM.

Turning to `Nc1ncccc1-c1nc2ccc(-c3ccc(N4CCOCC4)nc3)nc2n1-c1ccc(C2(N)CCC2)cc1` [Example 404, 3-{3-[4-(1-aminocyclobutyl)phenyl]-5-(6-morpholin-4-ylpyridin-3-yl)-3H-imidazo[4,5-b]pyridin-2-yl}pyridin-2-amine], the IC50 turned out to be 7.8 nM. As for `CC(C)C(=O)Nc1cccc(-c2ccc3nc(-c4cccnc4N)n(-c4ccc(C5(N)CCC5)cc4)c3n2)c1` [Example 405, N-(3-{3-[4-(1-aminocyclobutyl)phenyl]-2-(2-aminopyridin-3-yl)-3H-imidazo[4,5-b]pyridin-5-yl}phenyl)-2-methylpropanamide], the figure is 13 nM; as for `Nc1ncccc1-c1nc2ccc(-c3cccc(NS(=O)(=O)C4CC4)c3)nc2n1-c1ccc(C2(N)CCC2)cc1` [Example 406, N-(3-{3-[4-(1-aminocyclobutyl)phenyl]-2-(2-aminopyridin-3-yl)-3H-imidazo[4,5-b]pyridin-5-yl}phenyl)cyclopropanesulfonamide], 2.6 nM; as for `Cc1ccc(S(=O)(=O)Nc2cccc(-c3ccc4nc(-c5cccnc5N)n(-c5ccc(C6(N)CCC6)cc5)c4n3)c2)cc1` [Example 407, N-(3-{3-[4-(1-aminocyclobutyl)phenyl]-2-(2-aminopyridin-3-yl)-3H-imidazo[4,5-b]pyridin-5-yl}phenyl)-4-methylbenzenesulfonamide], 2.8 nM.
